Test results as given in patent US20090181933A1, “USE OF STEROIDS TO TREAT PERSONS SUFFERING FROM OCULAR DISORDERS” (priority 2008, published 2009).

How the values were obtained:
[1] = tested on: IOP of rabbits receiving subTenon's dexamethasone acetate; assay: Rabbit dexamethasone acetate-induced IOP elevation, topical ocular dosing; type: in vivo; settings: for IOP change versus vehicle treated group: weekly subTenon's dexamethasone acetate 1 mg/kg
Protocol: Three groups of rabbits received weekly subTenon's injections of dexamethasone acetate (1 mg/kg) for 4 weeks. After two weeks, the […] of all three groups measured approximately 5 mm Hg. The rabbits were then treated with vehicle, 0.1% anecortave acetate, a 1% anecortave acetate by topical ocular dosing three times a day for the remaining 2 weeks. The IOP continued to increase in the vehicle treated group.

[2] = tested on: glucocorticoid induced ocular hypertension; assay: Topical anecortave acetate eye drops in patients with glucocorticoid induced ocular hypertension; type: in vivo, human (patients); settings: 1% eye drops topically three times per day for up to 12 weeks, glucocorticoid continued, reduced from 29 mm Hg
Protocol: Patients ([…]) with documented glucocorticoid induced ocular hypertension were treated topically with 1% anecortave acetate eye drops three times per day for up to 12 weeks. The patients continued to receive their glucocorticoid medication.

| SMILES | IOPs (printed TOPs) after two weeks of dexamethasone acetate ([1]; weekly subTenon's injections 1 mg/kg, after two weeks, all three groups) | IOP after anecortave acetate treatment [2] | IOP change versus vehicle treated group ([1]; 0.1% topical ocular three times a day for 2 weeks) | IOP change versus vehicle treated group ([1]; 1% topical ocular three times a day for 2 weeks) |
| --- | --- | --- | --- | --- |
| CC(=O)OCC(=O)[C@@]1(O)[C@H](C)C[C@H]2[C@@H]3CCC4=CC(=O)C=C[C@]4(C)[C@@]3(F)[C@@H](O)C[C@@]21C [dexamethasone acetate] | approximately 5 mm Hg |  |  |  |
| CC(=O)OCC(=O)[C@@]1(O)CC[C@H]2[C@@H]3CCC4=CC(=O)CC[C@]4(C)C3=CC[C@@]21C [anecortave acetate, 4,9(11)-pregnadien-17α,21-diol-3,20dione-21-acetate] |  | 19-22 mm Hg | significantly lowered | significantly lowered |
